Key:
[1] = target: K-Ras^G12C : hSOS1 interaction (Homo sapiens, UniProt Q07889); assay: Biochemical assay 1: K-Ras^G12C interaction assay with hSOS1 (HTRF); type: binding; details: for IC50: read-out: Assay 1 (KRAS-SOS Interaction) activity expressed as IC50
[2] = target: human SOS1 (loading of human K-Ras^G12C-GDP with fluorescent GTP-analog) (Homo sapiens, UniProt Q07889); assay: Biochemical assay 3: K-Ras^G12C activation assay by hSOS1 (HTRF); details: no GTP; for IC50: read-out: Assay 3 (KRAS-Activation by SOS no GTP) activity expressed as IC50; for inhibition at 20 µM: read-out: Assay 3 (KRAS-Activation by SOS no GTP) activity expressed as % inhibition at 20 μM

SMILES | IC50 [1] [nM] | IC50 [2] [nM] | inhibition at 20 µM [2] [%] | inhibition at 20 µM ([1]; read-out: Assay 1 (KRAS-SOS Interaction) activity expressed as % inhibition at 20 μM) [%]
COc1cc2nc(C)nc(NC(C)c3cccc(Oc4ccccc4)c3)c2cc1OC (single isomer, unassigned; enantiomer 1) [Example 228, 6,7-dimethoxy-2-methyl-N-[1-(3-phenoxyphenyl)ethyl]quinazolin-4-amine, Enantiomer 1] | 569 | 1430 |  | 
COc1cc2nc(C)nc(NC(C)c3cccc4cccnc34)c2cc1OC (single isomer, unassigned; enantiomer 1) [Example 230, 6,7-dimethoxy-2-methyl-N-[1-(quinolin-8-yl)ethyl]quinazolin-4-amine, Enantiomer 1] | 4900 | 13300 |  | 
COc1cc2nc(C)nc(N[C@H](C)c3cccc(Cl)c3)c2cc1OC [Example 2, N-[(1R)-1-(3-chlorophenyl)ethyl]-6,7-dimethoxy-2-methylquinazolin-4-amine] | 127 | 537 |  | 
COC(=O)c1cc2c(C(C)Nc3nc(C)nc4cc(OC)c(OC)cc34)cccc2s1 (stereo not shown) [Example 3, methyl 4-{1-[(6,7-dimethoxy-2-methylquinazolin-4-yl)amino]ethyl}-1-benzothiophene-2-carboxylate] | 113 | 231 |  | 
COc1cc2nc(C)nc(NC(C)c3cccc4ccoc34)c2cc1OC (stereo not shown) [Example 4, N-[1-(1-benzofuran-7-yl)ethyl]-6,7-dimethoxy-2-methylquinazolin-4-amine] | 161 | 479 |  | 
COc1cc2nc(C)nc(NC(C)c3ccc(F)c4[nH]ncc34)c2cc1OC (stereo not shown) [Example 5, N-[1-(7-fluoro-1H-indazol-4-yl)ethyl]-6,7-dimethoxy-2-methylquinazolin-4-amine] | 1710 | 5060 |  | 
COc1cc2nc(C)nc(NC(C)c3cc(F)cc4[nH]ncc34)c2cc1OC (stereo not shown) [Example 6, N-[1-(6-fluoro-1H-indazol-4-yl)ethyl]-6,7-dimethoxy-2-methylquinazolin-4-amine] | 2280 | 4980 |  | 
COc1cc2nc(C)nc(NC(C)c3cccc4cn(C)nc34)c2cc1OC (stereo not shown) [Example 8, 6,7-dimethoxy-2-methyl-N-[1-(2-methyl-2H-indazol-7-yl)ethyl]quinazolin-4-amine] | 18200 |  | 14 | 
COc1cc2nc(C)nc(NC(C)c3cccc4nn(C)cc34)c2cc1OC (stereo not shown) [Example 9, 6,7-dimethoxy-2-methyl-N-[1-(2-methyl-2H-indazol-4-yl)ethyl]quinazolin-4-amine] | 1520 | 5960 |  | 
COc1cc2nc(C)nc(NC(C)c3cccc4cnn(C)c34)c2cc1OC (stereo not shown) [Example 10, 6,7-dimethoxy-2-methyl-N-[1-(1-methyl-1H-indazol-7-yl)ethyl]quinazolin-4-amine] | 1180 | 6140 |  | 
COc1cc2nc(C)nc(NC(C)c3cccc4c3CCCC4)c2cc1OC (stereo not shown) [Example 11, 6,7-dimethoxy-2-methyl-N-[1-(5,6,7,8-tetrahydronaphthalen-1-yl)ethyl]quinazolin-4-amine] | 203 | 540 |  | 
COc1cc2nc(C)nc(N[C@H](C)c3ccc(F)cc3)c2cc1OC [Example 12, N-[(1R)-1-(4-fluorophenyl)ethyl]-6,7-dimethoxy-2-methylquinazolin-4-amine] | 335 | 1290 |  | 
COc1cc2nc(C)nc(NC(C)c3cccc4[nH]nc(C)c34)c2cc1OC (stereo not shown) [Example 13, 6,7-dimethoxy-2-methyl-N-[1-(3-methyl-1H-indazol-4-yl)ethyl]quinazolin-4-amine] | 2020 | 7730 |  | 
COc1cc2nc(C)nc(NC(C)c3cc4cccc(O)c4o3)c2cc1OC (stereo not shown) [Example 28, 2-{-[(6,7-dimethoxy-2-methyquinazolin-4-yl)amino]ethyl}-1-benzofuran-7-ol] |  |  | 46 | 40
COC(=O)c1ccccc1-c1ccc(C(C)Nc2nc(C)nc3cc(OC)c(OC)cc23)s1 (stereo not shown) [Example 178, methyl 2-(5-{1-[(6,7-dimethoxy-2-methylquinazolin-4-yl)amino]ethyl}thiophen-2-yl)benzoate] | 1430 | 7120 |  | 
COc1cc2nc(C)nc(NC(C)c3ccc(-c4ccccc4CN4CCC(C(N)=O)CC4)s3)c2cc1OC (stereo not shown) [Example 179, 1-[2-(5-{1-[(6,7-dimethoxy-2-methylquinazolin-4-yl)amino]ethyl}thiophen-2-yl)benzyl]piperidine-4-carboxamide] | 90.4 | 214 |  | 
COc1cc2nc(C)nc(NC(C)c3ccc(-c4ccccc4CCO)s3)c2cc1OC (stereo not shown) [Example 180, 2-[2-(5-{1-[(6,7-dimethoxy-2-methylquinazolin-4-yl)amino]ethyl}thiophen-2-yl)phenyl]ethanol] | 241 | 820 |  | 
COc1cc2nc(C)nc(NC(C)c3ccc(-c4cccc(CCO)c4)s3)c2cc1OC (stereo not shown) [Example 181, 2-[3-(5-{1-[(6,7-dimethoxy-2-methylquinazolin-4-yl)amino]ethyl}thiophen-2-yl)phenyl]ethanol] | 3500 |  | 45 | 

SMILES | IC50 [1] [nM] | IC50 [2] [nM] | inhibition at 20 µM [2] [%] | inhibition at 20 µM ([1]; read-out: Assay 1 (KRAS-SOS Interaction) activity expressed as % inhibition at 20 μM) [%]
COc1cc2nc(C)nc(NC(C)c3ccc(-c4ccccc4CN4CC5(COC5)C4)s3)c2cc1OC (stereo not shown) [Example 182, 6,7-di methoxy-2-methyl-N-[1-{5-[2-(2-oxa-6-azaspiro[3.3]hept-6-ylmethyl)phenyl]thiophen-2-yl}ethyl]quinazolin-4-amine] | 51 | 121 |  | 
COc1cc2nc(C)nc(NC(C)c3cc(C)c(Br)s3)c2cc1OC (stereo not shown) [Example 183, N-[1-(5-bromo-4-methylthiophen-2-yl)ethyl]-6,7-dimethoxy-2-methylquinazolin-4-amine] | 2110 | 9140 |  | 
COc1cc2nc(C)nc(NC(C)c3ccc(-c4ccccc4CN4CCCC4)s3)c2cc1OC (stereo not shown) [Example 184, 6,7-dimethoxy-2-methyl-N-[1-{5-[2-(pyrrolidin-1-ylmethyl)phenyl]thiophen-2-yl}ethyl]quinazolin-4-amine] | 41.6 | 122 |  | 
COc1cc2nc(C)nc(NC(C)c3ccc(-c4ccccc4CN4CCC[C@H]4CN(C)C)s3)c2cc1OC (stereo partly drawn) [Example 185, N-[1-{5-[2-({(2S)-[(dimethylamino)methyl]pyrrolidin-1-yl}methyl)phenyl]thiophen-2-yl}ethyl]-6,7-dimethoxy-2-methylquinazolin-4-amine] | 78.8 | 323 |  | 
Cc1nc(N[C@H](C)c2cccc3ccccc23)c2ccccc2n1 [Example 186, 2-methyl-N-[(1R)-1-(naphthalen-1-yl)ethyl]quinazolin-4-amine] | 9940 |  | 22 | 
COc1cc2nc(C)nc(N[C@H](C)c3ccc(Br)cc3)c2cc1OC [Example 187, N-[(1R)-1-(4-bromophenyl)ethyl]-6,7-dimethoxy-2-methylquinazolin-4-amine] | 476 | 1260 |  | 
COc1cc2nc(C)nc(N[C@H](C)c3ccc(S(C)(=O)=O)cc3)c2cc1OC [Example 188, 6,7-dimethoxy-2-methyl-N-{(1R)-1-[4-(methylsulfonyl)phenyl]ethyl}quinazolin-4-amine] | 15700 |  | 38 | 
COc1cc2nc(C)nc(N[C@H](C)c3cccc(C)c3)c2cc1OC [Example 190, 6,7-dimethoxy-2-methyl-N-[(1R)-1-(3-methylphenyl)ethyl]quinazolin-4-amine] | 175 | 553 |  | 
COc1cc2nc(C)nc(N[C@H](C)c3cccc(Br)c3)c2cc1OC [Example 191, N-[(1R)-1-(3-bromophenyl)ethyl]-6,7-dimethoxy-2-methylquinazolin-4-amine] | 174 | 382 |  | 
COc1cc2nc(C)nc(N[C@H](C)c3ccc(C(N)=O)cc3)c2cc1OC [Example 192, 4-{(1R)-1-[(6,7-dimethoxy-2-methylquinazolin-4-yl)amino]ethyl}benzamide] | 4590 | 14200 |  | 
COc1cc2nc(C)nc(N[C@H](C)c3cccc(-c4ccccc4)c3)c2cc1OC [Example 193, N-[(1R)-1-(biphenyl-3-yl)ethyl]-6,7-dimethoxy-2-methylquinazolin-4-amine] | 416 | 820 |  | 
COc1cc2nc(C)nc(N[C@H](C)c3cccc(C#N)c3)c2cc1OC [Example 194, 3-{(1R)-1-[(6,7-dimethoxy-2-methylquinazolin-4-yl)amino]ethyl}benzonitrile] | 493 | 2430 |  | 
COc1cc2nc(C)nc(N[C@H](C)c3ccc(C)cc3)c2cc1OC [Example 195, 6,7-dimethoxy-2-methyl-N-[(1R)-1-(4-methylphenyl)ethyl]quinazolin-4-amine] | 300 | 749 |  | 
COc1cc2nc(C)nc(N[C@H](C)c3ccc(-c4ccccc4)cc3)c2cc1OC [Example 196, N-[(1R)-1-(biphenyl-4-yl)ethyl]-6,7-dimethoxy-2-methylquinazolin-4-amine] | 2420 | 6100 |  | 
COc1cc2nc(C)nc(N[C@H](C)c3ccc(C4CC4)cc3)c2cc1OC [Example 197, N-[(1R)-1-(4-cyclopropylphenyl)ethyl]-6,7-dimethoxy-2-methylquinazolin-4-amine] | 268 | 638 |  | 
COc1cc2nc(C)nc(N[C@H](C)c3cccc(S(C)(=O)=O)c3)c2cc1OC [Example 198, 6,7-dimethoxy-2-methyl-N-{(1R)-1-[3-(methylsulfonyl)phenyl]ethyl}quinazolin-4-amine] | 291 | 1090 |  | 
COc1cc2nc(C)nc(N[C@H](C)c3cccc(C(N)=O)c3)c2cc1OC [Example 199, 3-{(1R)-1-[(6,7-dimethoxy-2-methylquinazolin-4-yl)amino]ethyl}benzamide] | 1730 | 6700 |  | 

From patent publication US20240083857A1, “2-Methyl-Quinazolines” (Bayer Pharma Aktiengesellschaft, priority 2017, published 2024)
